Experimental data published in ChEMBL document CHEMBL4387705, “Synthesis of new arylsulfonylspiroimidazolidine-2',4'-diones and study of their effect on stimulation of insulin release from MIN6 cell line, inhibition of human aldose reductase, sorbitol accumulations in various tissues and oxidative stress” (Eur J Med Chem, 2019).

How the values were obtained:
MIN6 [1] = assay: Cytotoxicity against mouse MIN6 cells assessed as reduction in cell viability up to 200 uM incubated for 24 hrs by MTT assay; format: cell-based; conditions: min6, 24 h
[2] = Cytotoxicity against mouse MIN6 cells assessed as cell viability at 400 uM incubated for 24 hrs by MTT assay; format: cell-based; conditions: read-out: Activity
MIN6 [3] = assay: Antidiabetic activity in mouse MIN6 cells after 35 passages assessed as increase in insulin secretion at 100 uM in presence of 25 mM glucose by ELISA relative to control; format: functional
[4] = molecular target: Aldo-keto reductase family 1 member B1 (Homo sapiens, UniProt P15121); assay: Inhibition of human recombinant ALR2 expressed in Escherichia coli using DL-glyceraldehyde as substrate and NADPH preincubated for 5 mins followed by substrate addition and measured after 30 mins at 2 mins interval by spectrophotometry relative to control
[5] = molecular target: Aldo-keto reductase family 1 member B1 (Rattus norvegicus) (UniProt P07943); assay: (§1) Inhibition of ALR2 in rat erythrocytes assessed as reduction in sorbitol accumulation incubated for 3 hrs in presence of 28 mM glucose by gas chromatographic analysis relative to control; format: cell-based
[6] = molecular target: T1, Aldo-keto reductase family 1 member B1 (Rattus norvegicus, UniProt P07943); assay: as §1; format: cell-based
[7] = molecular target: Aldo-keto reductase family 1 member B1 (Rattus norvegicus) (UniProt P07943); assay: (§2) Inhibition of ALR2 in rat sciatic nerve assessed as reduction in sorbitol accumulation incubated for 3 hrs in presence of 28 mM glucose by gas chromatographic analysis
[8] = molecular target: T1, Aldo-keto reductase family 1 member B1; assay: as §2
[9] = molecular target: Aldo-keto reductase family 1 member B1 (Rattus norvegicus) (UniProt P07943); assay: (§3) Inhibition of ALR2 in rat lens assessed as reduction in sorbitol accumulation incubated for 3 hrs in presence of 28 mM glucose by gas chromatographic analysis relative to control
[10] = molecular target: T1, Aldo-keto reductase family 1 member B1; assay: as §3
[11] = Antioxidant activity assessed as DPPH radical scavenging activity at 10 uM incubated for 30 mins under dark condition by spectrophotometry; format: functional
[12] = Antioxidant activity assessed as DPPH radical scavenging activity at 50 uM incubated for 30 mins under dark condition by spectrophotometry; format: functional
[13] = Antioxidant activity assessed as DPPH radical scavenging activity at 100 uM incubated for 30 mins under dark condition by spectrophotometry; format: functional
[14] = Cytotoxicity against HEK293 cells assessed as reduction in cell viability at 25 uM incubated for 48 hrs by MTT assay relative to control; format: cell-based; conditions: human, read-out: INH
[15] = Cytotoxicity against HEK293 cells assessed as reduction in cell viability at 50 uM incubated for 48 hrs by MTT assay relative to control; format: cell-based; conditions: human, read-out: INH
[16] = Cytotoxicity against HEK293 cells assessed as reduction in cell viability at 100 uM incubated for 48 hrs by MTT assay relative to control; format: cell-based; conditions: human, read-out: INH
[17] = Cytotoxicity against HEK293 cells assessed as reduction in cell viability at 200 uM incubated for 48 hrs by MTT assay relative to control; format: cell-based; conditions: human, read-out: INH
MIN6 [18] = assay: Effect on cell morphology in mouse MIN6 cells assessed as cell viability up to 400 uM incubated for 24 hrs; format: cell-based; conditions: min6, 24 h
MIN6 [19] = assay: Antidiabetic activity in mouse MIN6 cells after 83 passages assessed as increase in insulin secretion at 100 uM in presence of 25 mM glucose by ELISA relative to control; format: functional
[20] = molecular target: Aldo-keto reductase family 1 member A1 (Rattus norvegicus, UniProt P51635); assay: Inhibition of rat kidney ALR1 using DL-glyceraldehyde as substrate and NADPH preincubated for 5 mins followed by substrate addition and measured for 30 mins at 2 mins interval by spectrophotometry relative to control
[21] = Selectivity ratio of IC50 for rat kidney ALR1 IC50 to IC50 for human recombinant ALR2

Sequence of Aldo-keto reductase family 1 member A1 (P51635 whole entry, looked up): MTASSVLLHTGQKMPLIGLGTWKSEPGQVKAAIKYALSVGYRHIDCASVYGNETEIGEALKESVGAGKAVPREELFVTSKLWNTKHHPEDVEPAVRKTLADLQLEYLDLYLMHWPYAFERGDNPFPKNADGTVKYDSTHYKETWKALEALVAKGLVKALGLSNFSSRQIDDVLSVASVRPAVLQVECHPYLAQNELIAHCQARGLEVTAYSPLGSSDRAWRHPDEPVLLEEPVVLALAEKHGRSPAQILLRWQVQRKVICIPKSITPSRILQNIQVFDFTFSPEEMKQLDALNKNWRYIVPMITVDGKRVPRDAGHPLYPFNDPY

| SMILES | IC50 [4] [µM] | inhibition [5] | IC50 [6] [µM] | inhibition [7] | IC50 [8] [µM] | inhibition [9] | IC50 [10] [µM] | Activity (MIN6 [1]) | viability at 24 h, 400 µM [2] [%] | Activity (MIN6 [3]) [%] | inhibition [11] [%] | inhibition [12] [%] | inhibition [13] [%] | cytotoxicity at 48 h, 25 µM [14] [%] | cytotoxicity at 48 h, 50 µM [15] [%] | cytotoxicity at 48 h, 100 µM [16] [%] | cytotoxicity at 48 h, 200 µM [17] [%] | Activity (MIN6 [18]) | Activity (MIN6 [19]) [%] | other results |
| --- | --- | --- | --- | --- | --- | --- | --- | --- | --- | --- | --- | --- | --- | --- | --- | --- | --- | --- | --- | --- |
| Cc1c(C)c2c(c(C)c1O)CCC(C)(C(=O)O)O2 (centres undefined) |  |  |  |  |  |  |  |  |  |  | 82.5 | 84.5 | 94.2 |  |  |  |  |  |  |  |
| CC(/C=C1\SC(=S)N(CC(=O)O)C1=O)=C\c1ccccc1 |  |  |  |  |  |  |  |  |  |  |  |  |  | 10.3 | 12 | 13.7 | 18.3 |  |  |  |
| O=C1NC(=O)C2(CCCc3ccccc32)N1S(=O)(=O)c1ccc(Cl)cc1 (centres undefined) | 6.15 | Dose-dependent effect | 3.8 | Dose-dependent effect | 4.34 | Dose-dependent effect | 3.86 | Non-Toxic | 81 | 140 |  |  | 8.48 | 10.8 | 12.6 | 19.9 | 33.3 | Non-Toxic | 159 |  |
| O=C1NC(=O)C2(CCCc3ccccc32)N1S(=O)(=O)c1ccc(F)cc1 (centres undefined) | 5.84 | Dose-dependent effect | 5.49 | Dose-dependent effect | 7.37 | Dose-dependent effect | 6.25 | Non-Toxic | 81 | 250 |  |  | 2.52 | 11.9 | 18.9 | 25.1 | 36.3 | Non-Toxic | 164 |  |
| O=C1NC(=O)C2(CCCc3ccccc32)N1S(=O)(=O)c1ccc([N+](=O)[O-])cc1 (centres undefined) | 34.5 | Dose-dependent effect |  | Dose-dependent effect |  | Dose-dependent effect |  | Non-Toxic | 81 | 145 | 70.5 | 77.3 | 87.6 | 23.6 | 36 | 39.2 | 53.4 | Non-Toxic |  |  |

Continued, in another order:

| IC50 [4] [µM] | inhibition [5] | IC50 [6] [µM] | inhibition [7] | IC50 [8] [µM] | inhibition [9] | IC50 [10] [µM] | SMILES | Activity (MIN6 [1]) | viability at 24 h, 400 µM [2] [%] | Activity (MIN6 [3]) [%] | inhibition [11] [%] | inhibition [12] [%] | inhibition [13] [%] | cytotoxicity at 48 h, 25 µM [14] [%] | cytotoxicity at 48 h, 50 µM [15] [%] | cytotoxicity at 48 h, 100 µM [16] [%] | cytotoxicity at 48 h, 200 µM [17] [%] | Activity (MIN6 [18]) | Activity (MIN6 [19]) [%] | other results |
| --- | --- | --- | --- | --- | --- | --- | --- | --- | --- | --- | --- | --- | --- | --- | --- | --- | --- | --- | --- | --- |
| 37.7 | Dose-dependent effect | 25.7 | Dose-dependent effect | 22.7 | Dose-dependent effect | 34.8 | CC(=O)c1ccc(S(=O)(=O)N2C(=O)NC3(CCCc4ccccc43)C2=O)cc1 (centres undefined) | Non-Toxic | 81 | 118 | 25.1 | 39.8 | 75.3 | 17.5 | 24.4 | 42 | 55.5 | Non-Toxic |  |  |
| 1.8 | Dose-dependent effect | 1.7 | Dose-dependent effect | 1.72 | Dose-dependent effect | 1.56 | Cc1ccc(S(=O)(=O)N2C(=O)NC3(CCCc4ccccc43)C2=O)cc1 (centres undefined) | Non-Toxic | 81 | 275 | 23.2 | 37.3 | 42.4 | 18.2 | 19.1 | 20.2 | 21.5 | Non-Toxic | 177 |  |
| 11.7 | Dose-dependent effect | 20.4 | Dose-dependent effect | 19.4 | Dose-dependent effect | 15.8 | COc1ccc(S(=O)(=O)N2C(=O)NC3(CCCc4ccccc43)C2=O)cc1 (centres undefined) | Non-Toxic | 81 | 142 | 31.6 | 45.3 | 66.9 | 15.4 | 13.6 | 18.5 | 26.6 | Non-Toxic |  | IC50 [20]: 25.6 µM; Ratio IC50 [21]: 2.2 |
| 10.8 | Dose-dependent effect | 11.1 | Dose-dependent effect | 10.4 | Dose-dependent effect | 10.9 | O=C1NC2(CCCc3ccccc32)C(=O)N1S(=O)(=O)c1ccc(Br)cc1 (centres undefined) | Non-Toxic | 81 | 165 |  |  | 1.55 | 16.9 | 18.9 | 21.1 | 39.3 | Non-Toxic |  | IC50 [20]: 44.1 µM; Ratio IC50 [21]: 4.07 |
|  | Dose-dependent effect |  | Dose-dependent effect |  | Dose-dependent effect |  | O=C1NC2(CCCc3ccccc32)C(=O)N1S(=O)(=O)c1ccc(F)cc1 (centres undefined) | Non-Toxic | 81 | 111 |  |  | 2.51 | 11.4 | 26.1 | 31.9 | 36.5 | Non-Toxic |  |  |
| 40.2 | Dose-dependent effect |  | Dose-dependent effect |  | Dose-dependent effect |  | O=C1NC2(CCCc3ccccc32)C(=O)N1S(=O)(=O)c1ccc(Cl)cc1 (centres undefined) | Non-Toxic | 81 | 145 |  |  | 8.44 | 12.7 | 16.1 | 18.2 | 23.3 | Non-Toxic |  |  |
| 5.02 | Dose-dependent effect | 1.34 | Dose-dependent effect | 1.33 | Dose-dependent effect | 1.15 | Cc1ccc(S(=O)(=O)N2C(=O)NC(=O)C23CCCc2ccccc23)cc1 (centres undefined) | Non-Toxic | 81 | 308 | 33.3 | 37.5 | 42.4 | 13.9 | 22.9 | 22.6 | 32 | Non-Toxic | 222 |  |
|  | Dose-dependent effect |  | Dose-dependent effect |  | Dose-dependent effect |  | O=C1NC2(CCCc3ccccc32)C(=O)N1S(=O)(=O)c1ccc([N+](=O)[O-])cc1 (centres undefined) | Non-Toxic | 81 | 121 | 44.8 | 67.3 | 77.6 | 9.37 | 14.2 | 19.2 | 28.4 | Non-Toxic |  |  |
